The record followed here is PubChem BioAssay (NCI).

SMILES strings stand for the structures.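 Values below derive from 48-hour exposures of cells grown in 96-well plates, with endpoints linearly interpolated between the two concentrations bracketing the appropriate inhibition level. At the GI50, growth is halved. Definition used: TGI = concentration required for complete inhibition of growth.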

Test systems include NCI-H522 lung; UO-31 renal; HOP-62 NSCLC; IGROV1 ovarian; OVCAR-8 ovarian; KM12 colon; NCI/ADR-RES ovarian; SK-OV-3 ovarian; SNB-75 CNS; SF-539 CNS.
Holding throughout (experiment): NCI tumour cell line growth inhibition, 48 h

Take `CCSC[C@@H]1C[C@](O)(c2ccccc2)[C@@H](c2ccccc2)O1`: the GI50 was 58.4 µM with NCI-H522 lung; 51.2 µM with UO-31 renal; > 100 µM in the assay on HOP-62 NSCLC; 59.5 µM in the assay with IGROV1 ovarian; > 100 µM in the assay with OVCAR-8 ovarian; > 75.8 µM in the assay with KM12 colon. For the same molecule, the GI50 was 77.8 µM in the assay with NCI/ADR-RES ovarian, > 100 µM with SK-OV-3 ovarian, 61.4 µM in the assay on SNB-75 CNS and > 100 µM with SF-539 CNS. The TGI in the assay with NCI-H522 lung, in the assay with UO-31 renal, with HOP-62 NSCLC, in the assay with IGROV1 ovarian, in the assay on OVCAR-8 ovarian and in the assay on KM12 colon was > 100 µM throughout. The TGI in the assay with NCI/ADR-RES ovarian, in the assay with SK-OV-3 ovarian, with SNB-75 CNS and in the assay with SF-539 CNS was > 100 µM each time.

Consider `Cn1c(=O)c(-c2ccccc2Cl)cc2cnc(NC3CCOCC3)nc21`, for which the GI50 in the assay with NCI-H522 lung was 12.6 µM; with UO-31 renal, 6.8 µM; in the assay with HOP-62 NSCLC, > 25 µM; in the assay on IGROV1 ovarian, 9.42 µM; in the assay with OVCAR-8 ovarian, 10.2 µM; in the assay on KM12 colon it was 21.1 µM. The GI50 in the assay with NCI/ADR-RES ovarian was 12.9 µM; in the assay on SK-OV-3 ovarian, 8.89 µM; in the assay on SNB-75 CNS, 3.82 µM; in the assay on SF-539 CNS, 11.1 µM. For the same molecule, the TGI with NCI-H522 lung is > 25 µM; in the assay on UO-31 renal, > 22.4 µM; with HOP-62 NSCLC, > 25 µM; in the assay on IGROV1 ovarian, > 25 µM; in the assay on OVCAR-8 ovarian it was > 25 µM; in the assay on KM12 colon, > 25 µM. Besides, the TGI in the assay with NCI/ADR-RES ovarian, in the assay on SK-OV-3 ovarian, with SNB-75 CNS and in the assay with SF-539 CNS was > 25 µM throughout.

Regarding `CC[C@H](C)[C@H](NC(=O)C12C3C4C1C1C2C3C41NC)C(=O)N(C)[C@H](C[C@@H](OC(C)=O)c1nc(C(=O)N[C@@H](Cc2ccccc2)C[C@H](C)C(=O)OC)cs1)C(C)C` (stereo not given in full), the GI50 is 0.0561 µM in the assay on NCI-H522 lung; 4.16 µM with UO-31 renal; 1.18 µM with HOP-62 NSCLC; 0.88 µM in the assay with IGROV1 ovarian; 0.717 µM in the assay with OVCAR-8 ovarian; 0.517 µM in the assay with KM12 colon. For the same molecule, the GI50 in the assay on NCI/ADR-RES ovarian is 8.15 µM; in the assay on SK-OV-3 ovarian, 0.698 µM; in the assay on SNB-75 CNS it was 0.319 µM; in the assay on SF-539 CNS it was 0.546 µM. In addition, the TGI is 0.967 µM in the assay on NCI-H522 lung; > 14.3 µM in the assay on UO-31 renal; > 11.7 µM with HOP-62 NSCLC; > 14.3 µM in the assay with IGROV1 ovarian; > 14.3 µM with OVCAR-8 ovarian; > 14.3 µM with KM12 colon. Besides, the TGI in the assay on NCI/ADR-RES ovarian is > 14.3 µM; in the assay on SK-OV-3 ovarian it was > 14.3 µM; in the assay on SNB-75 CNS it was > 14.3 µM; in the assay on SF-539 CNS, > 6.08 µM.

Regarding `COc1cc(-c2nc(-c3ccccc3)c(-c3ccccc3)[nH]2)cc(OC)c1O`, the GI50 was 17.6 µM in the assay on NCI-H522 lung; 13.2 µM in the assay on UO-31 renal; 21.9 µM in the assay with HOP-62 NSCLC; 26.9 µM with IGROV1 ovarian; 26.5 µM with OVCAR-8 ovarian; 15.1 µM in the assay on KM12 colon. Moreover, the GI50 in the assay on NCI/ADR-RES ovarian was 24.6 µM; in the assay on SK-OV-3 ovarian, 23.1 µM; in the assay with SNB-75 CNS, 11.2 µM; with SF-539 CNS it was 15.8 µM. Moreover, the TGI in the assay on NCI-H522 lung was found to be 33.8 µM; in the assay with UO-31 renal it was 31 µM; in the assay on HOP-62 NSCLC, 47.8 µM; in the assay with IGROV1 ovarian, 61.2 µM; in the assay on OVCAR-8 ovarian it was 83.2 µM; in the assay on KM12 colon, 30.4 µM. For the same molecule, the TGI with NCI/ADR-RES ovarian was 73.8 µM; in the assay on SK-OV-3 ovarian, 47.8 µM; with SNB-75 CNS, 26.4 µM; with SF-539 CNS, 30.8 µM.

For `O=C(Nc1ccn(C2CC(O)C(COC(c3ccccc3)(c3ccccc3)c3ccccc3)O2)c(=O)n1)c1ccccc1` (stereo not given), the TGI in the assay with NCI-H522 lung stood at 13.4 µM; with UO-31 renal, 18.7 µM; in the assay on HOP-62 NSCLC, 18.8 µM; with IGROV1 ovarian, 6.12 µM; in the assay with OVCAR-8 ovarian, 3.71 µM; with KM12 colon, 17.9 µM. For the same molecule, the TGI was 5.25 µM in the assay with NCI/ADR-RES ovarian, 28.3 µM in the assay with SK-OV-3 ovarian, 9.05 µM with SNB-75 CNS and 8.49 µM in the assay with SF-539 CNS.

Turning to `Clc1ccc2c(NCCNc3nc(N4CCOCC4)nc4ccccc34)ccnc2c1`, the GI50 in the assay with NCI-H522 lung was 2.03 µM; in the assay with UO-31 renal, 1.34 µM; in the assay on HOP-62 NSCLC, 2.25 µM; in the assay on IGROV1 ovarian it was 2.88 µM; with OVCAR-8 ovarian it was 2.18 µM; in the assay with KM12 colon, 2.66 µM. For the same molecule, the GI50 in the assay with NCI/ADR-RES ovarian was 3.73 µM; in the assay on SK-OV-3 ovarian it was 1.85 µM; in the assay with SNB-75 CNS it was 1.44 µM; in the assay on SF-539 CNS it was 1.73 µM. Besides, the TGI in the assay on NCI-H522 lung was found to be 3.8 µM; with UO-31 renal, 2.68 µM; with HOP-62 NSCLC it was 5.98 µM; in the assay with IGROV1 ovarian, 10.2 µM; with OVCAR-8 ovarian, 5.24 µM; in the assay with KM12 colon, 8.16 µM. Besides, the TGI in the assay on NCI/ADR-RES ovarian worked out at 15.5 µM; in the assay on SK-OV-3 ovarian, 3.85 µM; with SNB-75 CNS, 2.85 µM; with SF-539 CNS it was 3.34 µM.

With `O=c1[nH]c2cc(Cl)ccc2nc1/C(=N\Nc1ccccc1)C(O)c1ccc2c(c1)OCO2` (stereo not given), the TGI in the assay on NCI-H522 lung, in the assay with UO-31 renal, in the assay on HOP-62 NSCLC, in the assay on IGROV1 ovarian, in the assay with OVCAR-8 ovarian and in the assay on KM12 colon was > 100 µM each time. Moreover, the TGI with NCI/ADR-RES ovarian, in the assay on SK-OV-3 ovarian, in the assay on SNB-75 CNS and with SF-539 CNS was > 100 µM in each case.

Consider `COc1ccc2nc3ccccc3c(NCCNCCO)c2c1`, for which the GI50 in the assay with NCI-H522 lung was 0.38 µM; in the assay with UO-31 renal it was 0.328 µM; in the assay with HOP-62 NSCLC, 0.604 µM; with IGROV1 ovarian, 0.54 µM; with OVCAR-8 ovarian, 0.528 µM; with KM12 colon, 0.455 µM. The GI50 with NCI/ADR-RES ovarian is 5.04 µM; in the assay with SK-OV-3 ovarian, 0.869 µM; with SNB-75 CNS, 0.854 µM; in the assay with SF-539 CNS, 0.801 µM. The TGI with NCI-H522 lung came out at 1.97 µM; in the assay with UO-31 renal, 1.68 µM; in the assay with HOP-62 NSCLC it was 3.99 µM; in the assay with IGROV1 ovarian, 3.06 µM; with OVCAR-8 ovarian, 8.88 µM; in the assay with KM12 colon, 3.37 µM. Further, the TGI is > 89 µM in the assay on NCI/ADR-RES ovarian, 7.67 µM with SK-OV-3 ovarian, 2.13 µM in the assay on SNB-75 CNS and 2.99 µM in the assay with SF-539 CNS.
